We go through 5 molecules from ChEMBL document CHEMBL2074485, “Identification of thyroid hormone transporters in humans: different molecules are involved in a tissue-specific manner” (Endocrinology, 2001).

Data set [1] has as its target T1, Solute carrier organic anion transporter family member 4A1 (Homo sapiens, UniProt Q96BD0).
T1 sequence (Q96BD0 whole entry): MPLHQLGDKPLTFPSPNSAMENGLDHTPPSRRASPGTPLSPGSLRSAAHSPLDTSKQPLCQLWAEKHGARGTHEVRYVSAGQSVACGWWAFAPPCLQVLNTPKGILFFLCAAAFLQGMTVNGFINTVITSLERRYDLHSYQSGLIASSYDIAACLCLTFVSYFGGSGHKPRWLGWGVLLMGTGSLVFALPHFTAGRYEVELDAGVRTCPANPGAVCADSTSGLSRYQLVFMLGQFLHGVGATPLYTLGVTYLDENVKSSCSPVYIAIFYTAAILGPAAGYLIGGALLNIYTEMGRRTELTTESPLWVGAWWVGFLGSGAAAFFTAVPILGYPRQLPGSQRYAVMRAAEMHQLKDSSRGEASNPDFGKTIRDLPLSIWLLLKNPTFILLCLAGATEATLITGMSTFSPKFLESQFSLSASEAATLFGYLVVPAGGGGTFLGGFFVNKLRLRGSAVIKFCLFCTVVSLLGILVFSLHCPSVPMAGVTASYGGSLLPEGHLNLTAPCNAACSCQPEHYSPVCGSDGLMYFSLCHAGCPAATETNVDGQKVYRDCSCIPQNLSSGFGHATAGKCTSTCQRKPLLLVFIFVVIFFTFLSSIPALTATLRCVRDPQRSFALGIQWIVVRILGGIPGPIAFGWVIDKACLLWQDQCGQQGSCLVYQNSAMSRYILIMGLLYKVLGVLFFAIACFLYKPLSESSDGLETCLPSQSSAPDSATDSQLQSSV
Kind of data set: TP_TRANSPORTER: inhibition of T3 uptake (T3: 1 uM, T4: 100 uM) in Xenopus laevis oocytes. Type of data set: functional, cell-based. The note with it: oocyte.

The target in data set [2] is T2, Solute carrier organic anion transporter family member 1A2 (OATP1A2, SLCO1A2) (Homo sapiens, UniProt P46721).
T2 sequence (P46721 whole entry): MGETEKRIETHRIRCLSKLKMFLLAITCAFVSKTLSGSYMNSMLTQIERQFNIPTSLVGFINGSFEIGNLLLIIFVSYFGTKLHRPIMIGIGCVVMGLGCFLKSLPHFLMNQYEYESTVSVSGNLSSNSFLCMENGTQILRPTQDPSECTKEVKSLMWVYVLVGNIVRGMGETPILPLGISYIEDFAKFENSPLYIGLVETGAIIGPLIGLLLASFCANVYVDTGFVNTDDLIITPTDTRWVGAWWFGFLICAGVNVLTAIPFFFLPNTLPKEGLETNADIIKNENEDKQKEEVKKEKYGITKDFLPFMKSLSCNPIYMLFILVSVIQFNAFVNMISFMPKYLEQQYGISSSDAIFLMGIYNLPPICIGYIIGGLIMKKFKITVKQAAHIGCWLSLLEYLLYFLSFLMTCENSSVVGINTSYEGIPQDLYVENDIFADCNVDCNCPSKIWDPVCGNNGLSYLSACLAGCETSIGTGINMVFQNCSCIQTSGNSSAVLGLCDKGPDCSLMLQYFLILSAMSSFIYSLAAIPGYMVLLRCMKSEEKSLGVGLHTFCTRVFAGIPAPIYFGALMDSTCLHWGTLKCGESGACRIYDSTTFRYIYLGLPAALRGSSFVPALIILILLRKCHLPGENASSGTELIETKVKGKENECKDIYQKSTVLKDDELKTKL
Nature of the data set: (§1) TP_TRANSPORTER: uptake in Xenopus laevis oocytes. The note with it: Xenopus laevis oocytes expressing the transporter.

The target of data set [3] is T1, Solute carrier organic anion transporter family member 4A1. The data set is described as §1. The note with it: oocyte. Type of data set: functional, cell-based.
For data set [4] the target is unchanged. Nature of the data set: TP_TRANSPORTER: inhibition of Taurocholate uptake (Taurochorate: 5 uM, T3: 50 uM) in Xenopus laevis oocytes. In kind it is functional, cell-based. The note with it: oocyte.
Data set [5] shares this target. Kind of data set: TP_TRANSPORTER: inhibition of Taurocholate uptake (Taurochorate: 5 uM, BSP: 50 uM) in Xenopus laevis oocytes. In kind it is functional, cell-based. As to conditions: oocyte.
Substrate in data set [6]: N[C@@H](Cc1cc(I)c(Oc2ccc(O)c(I)c2)c(I)c1)C(=O)O
The data set is described as §1. In kind it is functional, cell-based, Oocyte.

As a reminder, the Km is the substrate concentration at which the rate is half of its maximum. With `N[C@@H](Cc1cc(I)c(Oc2cc(I)c(O)c(I)c2)c(I)c1)C(=O)O` [LEVOTHYROXINE], the Activity result in data set [1] was “inhibitor [(at a rough estimate) 15 % of control]”; in data set [3] it was “substrate [+]”. In data set [2], the Km worked out at 8 µM.
For `N[C@@H](Cc1cc(I)c(Oc2ccc(O)c(I)c2)c(I)c1)C(=O)O` [LIOTHYRONINE], the Activity result in data set [4] was “inhibitor [(at a rough estimate) 30 % of control]”.
For the molecule `N[C@@H](Cc1ccc(Oc2cc(I)c(O)c(I)c2)c(I)c1)C(=O)O` [REVERSE TRIIODOTHYRONINE], the Activity result in data set [3] is “substrate [+]”.
Regarding `O=C1OC(c2ccc(O)c(S(=O)(=O)[O-])c2)(c2ccc(O)c(S(=O)(=O)[O-])c2)c2c(Br)c(Br)c(Br)c(Br)c21.[Na+].[Na+]` [SULFOBROMOPHTHALEIN SODIUM], the Activity result in data set [5] is “inhibitor [(at a rough estimate) 15 % of control]”.

B1: Solute carrier organic anion transporter family member 4A1 (Homo sapiens) (protein)
chain: T1 sequence (Q96BD0 whole entry)
In the case of B1, in data set [6], the Km was found to be 0.9 µM.
